Data as given in patent US7297551B2, “Recombinant proteins and peptides for endotoxin biosensors, endotoxin removal, and anti-microbial and anti-endotoxin therapeutics” (priority 1998, dated 2007).
Read-outs that look alike come from different tables or passages of the source. Peptide text beside a SMILES is read from it.

Key:
[1] = Hill's plot for interaction between synthetic peptides and lipid A; assay type: binding; settings: number of peptide molecules to 1 LPS molecule
[2] = tested on: P. aeruginosa ATCC 27853; experiment: Killing rate assay; assay type: cell-based, Pseudomonas aeruginosa; settings: peptides at 0.06 μg/ml, initial 10^9 cfu/ml
Excerpt: The killing rate assay was adapted from the MBC test above, with different contact time of peptides with the bacteria arrested at regular intervals and plated for colony count. An initial density of 10^9 cfu/ml was used. […] This is one of the important features of an effective therapeutic agent.

[3] = tested on: Human erythrocytes; experiment: Hemolysis assay, human erythrocytes; assay type: cell-based; settings: at 100 μg/ml
Description: Human and rabbit erythrocytes were both used to test the hemolytic activities of the peptides. Whole blood was collected in heparinized sterile syringe, transferred to sterile borosilicate tube and centrifuged at 1200 g for 5 minutes at 4° C. The supernatant including the leukocytes above the erythrocyte pellet was discarded. The erythrocytes were washed 3 times using three volumes of prechilled pyrogen-free saline (PFS). An erythrocyte suspension at 0.4% was prepared for the hemolysis assay. Serial two-fold dilutions of the peptides was prepared in PFS and 100 μl aliquots were added to equal volumes of 0.4% erythrocyte solution in a 96-well microtiter plate (Nunclon™ Δ surface, Nunc) to give final peptide concentrations ranging from 6 to 100 μg/ml. The mixtures were incubated at 37° C. for 1 h. The intact erythrocytes were then pelleted by centrifuging at 1000 g for 5 min. One hundred μl of the supernatant was transferred to a new 96-well microtiter plate and the amount of hemoglobin released into the supernatant was determined by reading the absorbance at 414 nm using a SPECTRAmax™ 340 plate reader with SOFTmax PRO™ version 1.2.0. A positive control with 100 μl of 0.4% erythrocyte lysed in 1% Triton-X 100 was taken as 100% lysis. The negative control was the erythrocytes in PFS alone, which gave minimal lysis. This was taken as 0%.

[4] = tested on: LPS-induced hTNF-α secretion from THP-1; experiment: Inhibition of LPS-induced hTNF-α secretion from PMA-treated THP-1 cells; assay type: cell-based, human
Description: […] THP-1 cells were grown in RPMI 1640 medium supplemented with 10% FBS, penicillin (100 U/ml) and streptomycin (0.1 mg/ml), at 37° C. in a humidified environment in the presence of 5% CO2. The cells were maintained at a density between 2.5×10^5 and 2.5×10^6 cells/ml.
THP-1 cells were prepared for experiment by addition of a concentrated stock solution of phorbol myristate acetate (PMA, 0.3. mg/ml in dimethyl sulfoxide) to cell suspension to give a final concentration of 30 ng/ml PMA and 0.01% dimethyl sulfoxide (25). PMA-treated cell suspensions were immediately plated into 96-well microtitre plate at a density of 4×10^5 cells/ml and allowed to differentiate for 48 hours at 37° C. […] At indicated times, the culture medium was collected.

[5] = tested on: P. aeruginosa; experiment: Microbicidal concentration (MBC) assay; assay type: cell-based, Pseudomonas aeruginosa
Description: Test strains cultured on Mueller-Hinton agar (MHA, Becton Dickinson, USA) were inoculated into 10 ml Mueller-Hinton broth (MHB, Becton Dickinson, USA) and grown overnight at 37° C. in a shaker incubator (Model 4536, Forma Scientific, Inc., USA) at 230 rpm. Overnight broth cultures were diluted to give a final cell density of 10^5 colony forming units/ml (cfu/ml). One hundred microliters of the bacterial suspension was dispensed into sterile polypropylene 8-strip PCR-tubes (Quality Scientific Plastics, USA). Eleven microliters of serially diluted sushi peptides, ranging in final concentrations of 0.03-4 μg/ml, were then added. The peptides were constituted at 10 times the required test concentrations in 0.01% acetic acid and 0.2% bovine serum albumin (BSA). Positive controls were cultures without test peptides. Uninoculated MHB was used as negative control. All tests were carried out in triplicate.
Cultures were incubated at 37° C. for 18-24 h, with the PCR-tubes held in horizontal position and shaken at 230 rpm. Cell counts were determined by standard drop-count method. The killing efficiency for the four sushi peptides were calculated based on standard drop-count method.

[6] = Protection of galactosamine-sensitized mice from LPS-induced lethality; assay type: in vivo, C57BL/6J mice; settings: 75 μg peptide, 2 ng LPS pre-incubated with peptide 30 minutes
Description: The anti-endotoxin potency of SSCrFCES was investigated in C57BL/6J mice. Mice are typically resistant to endotoxin. However, the sensitivity of mice to endotoxin can be enhanced >1,000-fold by co-injection with a liver-specific inhibitor, galactosamine (31). […] […] Lethality was observed over 3 days after injection. Statistical analysis were performed using the Kaplan-Meier test (32) and log rank pairwise test.

CC[C@H](C)[C@H](NC(=O)[C@H](CCCCN)NC(=O)[C@H](C)NC(=O)[C@H](CCCCN)NC(=O)CNC(=O)[C@H](CCCCN)NC(=O)[C@H](CC(C)C)NC(=O)[C@H](CCCCN)NC(=O)[C@H](Cc1ccccc1)NC(=O)CN)C(=O)N[C@@H](CO)C(=O)N[C@@H](CS)C(=O)N[C@@H](CC(C)C)C(=O)N1CCC[C@H]1C(=O)N[C@@H](CC(N)=O)C(=O)NCC(=O)N[C@@H](CCC(N)=O)C(=O)N[C@@H](Cc1c[nH]c2ccccc12)C(=O)N[C@@H](CO)C(=O)N[C@@H](CC(N)=O)C(=O)N[C@@H](Cc1ccccc1)C(=O)N1CCC[C@H]1C(=O)N1CCC[C@H]1C(=O)N[C@@H](CCCCN)C(=O)N[C@@H](CS)C(=O)N[C@H](C(=O)N[C@@H](CCCNC(=N)N)C(=O)N[C@@H](CCC(=O)O)C(=O)N[C@@H](CS)C(=O)N[C@@H](C)C(=O)N[C@@H](CCSC)C(=O)N[C@H](C(=O)N[C@@H](CO)C(=O)N[C@@H](CO)C(=O)O)C(C)C)[C@@H](C)CC [S1Δ] (H-GFKLKGKAKISCLPNGQWSNFPPKCIRECAMVSS-OH; N-terminus and C-terminus assumed)
Stoichiometry of Binding Cooperativity Hill's Coefficient [1]: 1.06 | Killing rate (time to achieve MBC90) [2]: 7 min | Hemolytic activity [3]: negligible haemolysis | IC50 ([4]; peptide needed for 50% suppression, read-out: Suppression of LPS-Induced cytokine TNF-α (50%)): 53 µM | IC50 ([4]; read-out: 50% inhibition of LPS-induced TNF-α release, 10 ng/ml LPS, serum-free): 53.3 µM | Anti-microbial Potency P. aeruginosa MBC90 ([5]; MBC): 0.06 mg/L | MBC90 ([5]; P. aeruginosa): (16 nM) | Mouse Protection Assay [6]: 40% at 75
